Experimental data as given in PubChem BioAssay (NCI).
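Each compound was tested at five concentrations against cells in 96-well plates for 48 hours. TGI: concentration producing complete growth inhibition.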

Legend:
Test in all cases: DTP human tumour cell line panel, 48 h
786-0 renal = test system: 786-0 renal
A549 NSCLC = test system: A549 NSCLC
COLO 205 colon = test system: COLO 205 colon
HL-60(TB) leukemia = test system: HL-60(TB) leukemia
K-562 leukemia = test system: K-562 leukemia
LOX IMVI melanoma = test system: LOX IMVI melanoma
MDA-MB-231 breast = test system: MDA-MB-231 breast
MDA-MB-435 = test system: MDA-MB-435
NCI-H522 lung = test system: NCI-H522 lung
NCI/ADR-RES ovarian = test system: NCI/ADR-RES ovarian
OVCAR-3 ovarian = test system: OVCAR-3 ovarian
OVCAR-5 ovarian = test system: OVCAR-5 ovarian
RXF 393 renal = test system: RXF 393 renal
SNB-19 CNS = test system: SNB-19 CNS
SR leukemia = test system: SR leukemia
UACC-62 melanoma = test system: UACC-62 melanoma
RPMI-8226 leukemia = test system: RPMI-8226 leukemia
SF-539 CNS = test system: SF-539 CNS

Work on `Oc1ccc(-c2cn3cc(C(F)(F)F)ccc3n2)cc1` yielded a TGI (786-0 renal) of over 100 µM, a TGI (A549 NSCLC) of over 100 µM and a TGI (COLO 205 colon) of over 100 µM. For the same compound, the TGI (HL-60(TB) leukemia) was over 100 µM, the TGI (K-562 leukemia) was over 100 µM and the TGI (LOX IMVI melanoma) was over 100 µM. For the same compound, the TGI (MDA-MB-231 breast) was over 100 µM, the TGI (MDA-MB-435) was over 100 µM and the TGI (NCI-H522 lung) was 88 µM. For the same compound, the TGI (NCI/ADR-RES ovarian) was over 100 µM, the TGI (OVCAR-3 ovarian) was over 100 µM and the TGI (OVCAR-5 ovarian) was over 100 µM. It also gave a TGI (RXF 393 renal) of over 100 µM, a TGI (SNB-19 CNS) of over 100 µM and a TGI (SR leukemia) of over 100 µM. It also gave a TGI (UACC-62 melanoma) of over 100 µM.

`COC1(CC[C@H](C)COC2OC(CO)C(O)C(O)C2O)O[C@H]2C[C@H]3[C@@H]4CC=C5C[C@@H](OC6OC(CO)C(O)C(OC7OC(CO)C(O)C(O)C7O)C6OC6OC(C)C(O)C(O)C6O)CC[C@]5(C)[C@H]4CC[C@]3(C)[C@H]2[C@@H]1C` (some centres not stated) showed a TGI (786-0 renal) of 5.29 µM, a TGI (A549 NSCLC) of 7.27 µM and a TGI (COLO 205 colon) of 16.2 µM. The TGI (HL-60(TB) leukemia) was 8.53 µM, the TGI (K-562 leukemia) was over 47.9 µM and the TGI (LOX IMVI melanoma) was 6.06 µM. For the same compound, the TGI (MDA-MB-231 breast) was 15.5 µM, the TGI (MDA-MB-435) was 4.24 µM and the TGI (NCI-H522 lung) was 7.41 µM. For the same compound, the TGI (NCI/ADR-RES ovarian) was 25.7 µM, the TGI (OVCAR-3 ovarian) was 33.1 µM and the TGI (OVCAR-5 ovarian) was over 32.5 µM. It also gave a TGI (RPMI-8226 leukemia) of 23.6 µM, a TGI (RXF 393 renal) of 16.3 µM and a TGI (SF-539 CNS) of 4.85 µM. For the same compound, the TGI (SNB-19 CNS) was 18.4 µM, the TGI (SR leukemia) was over 100 µM and the TGI (UACC-62 melanoma) was over 39.2 µM.

`Cn1c(=O)oc2cc(Br)ccc21` was tested, and the TGI (786-0 renal) was over 100 µM, the TGI (A549 NSCLC) was over 100 µM and the TGI (COLO 205 colon) was over 100 µM. It also gave a TGI (HL-60(TB) leukemia) of over 100 µM, a TGI (K-562 leukemia) of over 100 µM and a TGI (LOX IMVI melanoma) of over 100 µM. It also gave a TGI (MDA-MB-231 breast) of over 100 µM, a TGI (MDA-MB-435) of over 100 µM and a TGI (NCI-H522 lung) of over 100 µM. It also gave a TGI (NCI/ADR-RES ovarian) of over 100 µM, a TGI (OVCAR-3 ovarian) of over 100 µM and a TGI (OVCAR-5 ovarian) of over 100 µM. For the same compound, the TGI (RPMI-8226 leukemia) was over 100 µM, the TGI (RXF 393 renal) was over 100 µM and the TGI (SF-539 CNS) was over 100 µM. It also gave a TGI (SNB-19 CNS) of over 100 µM, a TGI (SR leukemia) of over 100 µM and a TGI (UACC-62 melanoma) of over 100 µM.
